In paper PMC11864979, “First-in-class ultralong-target-residence-time p38α inhibitors as a mitosis-targeted therapy for colorectal cancer” (Nature Cancer, 2025):
Like-named read-outs stand apart in the source and are kept apart here.

Tests used:
Assay in all cases: selectivity profiling in a panel of 340 wild-type kinases (Reaction Biology Europe)
Type in all cases: binding
340 wild-type kinases [1] = molecular target: T1, 340 wild-type kinases (Homo sapiens, UniProt O75914)
T1 construct: purchased Reaction Biology Europe

340 wild-type kinases [2] = molecular target: T2, 340 wild-type kinases (Homo sapiens, UniProt P22607)
T2 construct: purchased Reaction Biology Europe

340 wild-type kinases [3] = molecular target: T3, 340 wild-type kinases (Homo sapiens, UniProt P49336)
T3 construct: purchased Reaction Biology Europe

340 wild-type kinases [4] = molecular target: T4, 340 wild-type kinases (Homo sapiens, UniProt P54764)
T4 construct: purchased Reaction Biology Europe

340 wild-type kinases [5] = molecular target: T5, 340 wild-type kinases (Homo sapiens, UniProt Q04771)
T5 construct: purchased Reaction Biology Europe
T5 sequence (Q04771 21-509): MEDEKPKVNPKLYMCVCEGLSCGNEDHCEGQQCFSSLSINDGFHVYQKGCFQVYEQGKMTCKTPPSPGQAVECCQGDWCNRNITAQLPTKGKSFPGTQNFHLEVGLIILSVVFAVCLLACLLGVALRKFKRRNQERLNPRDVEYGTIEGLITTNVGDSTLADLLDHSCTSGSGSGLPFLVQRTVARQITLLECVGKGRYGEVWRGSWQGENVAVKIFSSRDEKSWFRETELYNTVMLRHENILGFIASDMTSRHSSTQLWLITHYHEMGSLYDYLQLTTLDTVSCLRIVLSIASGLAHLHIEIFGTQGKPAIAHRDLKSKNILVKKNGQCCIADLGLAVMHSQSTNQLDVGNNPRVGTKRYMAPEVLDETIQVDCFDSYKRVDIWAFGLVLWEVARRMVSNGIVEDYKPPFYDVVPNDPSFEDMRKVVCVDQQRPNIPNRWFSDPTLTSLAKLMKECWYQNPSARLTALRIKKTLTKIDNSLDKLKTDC

340 wild-type kinases [6] = molecular target: T6, 340 wild-type kinases (Homo sapiens, UniProt Q04912)
T6 construct: purchased Reaction Biology Europe

340 wild-type kinases [7] = molecular target: T7, 340 wild-type kinases (Homo sapiens, UniProt Q92630)
T7 construct: purchased Reaction Biology Europe
T7 sequence (Q92630 1-601): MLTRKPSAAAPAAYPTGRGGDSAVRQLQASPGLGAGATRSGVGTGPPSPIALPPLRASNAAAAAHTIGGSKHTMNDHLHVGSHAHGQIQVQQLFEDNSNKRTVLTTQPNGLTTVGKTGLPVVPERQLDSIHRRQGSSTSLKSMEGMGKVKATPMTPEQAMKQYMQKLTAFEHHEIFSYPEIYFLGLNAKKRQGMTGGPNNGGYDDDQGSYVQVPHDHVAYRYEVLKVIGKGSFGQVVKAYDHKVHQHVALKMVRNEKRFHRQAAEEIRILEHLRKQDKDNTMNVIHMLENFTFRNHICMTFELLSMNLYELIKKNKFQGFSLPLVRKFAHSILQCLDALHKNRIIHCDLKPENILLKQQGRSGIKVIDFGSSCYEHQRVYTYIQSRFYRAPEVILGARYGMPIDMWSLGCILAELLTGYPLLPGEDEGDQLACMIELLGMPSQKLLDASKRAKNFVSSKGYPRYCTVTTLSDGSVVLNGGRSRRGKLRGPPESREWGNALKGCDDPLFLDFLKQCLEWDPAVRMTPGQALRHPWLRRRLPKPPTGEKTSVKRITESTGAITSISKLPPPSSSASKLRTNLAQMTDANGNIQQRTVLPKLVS

340 wild-type kinases [8] = molecular target: T8, 340 wild-type kinases (Homo sapiens, UniProt Q9BZL6)
T8 construct: purchased Reaction Biology Europe
T8 sequence (Q9BZL6 1-878): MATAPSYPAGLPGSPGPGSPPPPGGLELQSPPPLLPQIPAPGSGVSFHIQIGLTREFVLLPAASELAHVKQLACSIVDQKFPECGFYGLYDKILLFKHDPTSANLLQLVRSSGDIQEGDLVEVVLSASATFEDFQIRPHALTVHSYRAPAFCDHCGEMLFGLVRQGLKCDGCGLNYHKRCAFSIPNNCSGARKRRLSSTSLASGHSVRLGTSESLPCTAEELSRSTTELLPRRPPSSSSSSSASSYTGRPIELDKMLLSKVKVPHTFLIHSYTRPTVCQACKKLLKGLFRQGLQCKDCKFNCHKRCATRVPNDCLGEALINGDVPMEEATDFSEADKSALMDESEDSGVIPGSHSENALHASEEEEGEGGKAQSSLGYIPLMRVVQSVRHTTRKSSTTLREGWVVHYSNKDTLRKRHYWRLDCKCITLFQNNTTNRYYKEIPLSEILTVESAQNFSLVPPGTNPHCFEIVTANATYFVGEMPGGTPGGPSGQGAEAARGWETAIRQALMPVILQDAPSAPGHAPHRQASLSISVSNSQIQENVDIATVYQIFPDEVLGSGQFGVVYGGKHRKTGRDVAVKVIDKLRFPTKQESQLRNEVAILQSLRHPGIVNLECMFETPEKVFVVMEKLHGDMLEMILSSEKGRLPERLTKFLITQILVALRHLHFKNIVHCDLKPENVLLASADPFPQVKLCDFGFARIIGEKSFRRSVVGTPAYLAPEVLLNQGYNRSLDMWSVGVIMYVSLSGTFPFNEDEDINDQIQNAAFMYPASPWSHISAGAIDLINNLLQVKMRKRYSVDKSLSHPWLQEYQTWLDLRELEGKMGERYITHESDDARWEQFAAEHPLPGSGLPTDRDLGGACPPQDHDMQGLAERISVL

T2 sequence (P22607 23-806): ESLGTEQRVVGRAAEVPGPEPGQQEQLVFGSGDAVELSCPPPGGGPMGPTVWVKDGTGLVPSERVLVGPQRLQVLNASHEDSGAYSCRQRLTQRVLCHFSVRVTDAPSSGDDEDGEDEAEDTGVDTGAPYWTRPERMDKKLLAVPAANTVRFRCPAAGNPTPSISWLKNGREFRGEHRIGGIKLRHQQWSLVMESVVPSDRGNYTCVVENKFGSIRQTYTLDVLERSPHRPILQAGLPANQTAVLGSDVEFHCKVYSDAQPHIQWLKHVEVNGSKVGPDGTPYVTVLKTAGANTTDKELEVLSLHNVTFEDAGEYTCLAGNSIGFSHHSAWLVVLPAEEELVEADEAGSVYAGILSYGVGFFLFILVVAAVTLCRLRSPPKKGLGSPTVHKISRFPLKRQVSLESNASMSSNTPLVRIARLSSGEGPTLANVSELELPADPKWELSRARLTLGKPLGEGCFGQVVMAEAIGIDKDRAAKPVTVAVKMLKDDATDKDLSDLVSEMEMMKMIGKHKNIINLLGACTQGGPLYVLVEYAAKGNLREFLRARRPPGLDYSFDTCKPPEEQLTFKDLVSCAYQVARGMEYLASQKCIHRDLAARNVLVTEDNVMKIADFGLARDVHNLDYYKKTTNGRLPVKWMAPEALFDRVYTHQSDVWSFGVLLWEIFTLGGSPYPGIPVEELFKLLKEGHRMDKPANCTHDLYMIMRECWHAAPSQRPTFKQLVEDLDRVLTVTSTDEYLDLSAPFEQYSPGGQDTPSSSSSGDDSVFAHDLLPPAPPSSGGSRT
T3 sequence (P49336 whole entry): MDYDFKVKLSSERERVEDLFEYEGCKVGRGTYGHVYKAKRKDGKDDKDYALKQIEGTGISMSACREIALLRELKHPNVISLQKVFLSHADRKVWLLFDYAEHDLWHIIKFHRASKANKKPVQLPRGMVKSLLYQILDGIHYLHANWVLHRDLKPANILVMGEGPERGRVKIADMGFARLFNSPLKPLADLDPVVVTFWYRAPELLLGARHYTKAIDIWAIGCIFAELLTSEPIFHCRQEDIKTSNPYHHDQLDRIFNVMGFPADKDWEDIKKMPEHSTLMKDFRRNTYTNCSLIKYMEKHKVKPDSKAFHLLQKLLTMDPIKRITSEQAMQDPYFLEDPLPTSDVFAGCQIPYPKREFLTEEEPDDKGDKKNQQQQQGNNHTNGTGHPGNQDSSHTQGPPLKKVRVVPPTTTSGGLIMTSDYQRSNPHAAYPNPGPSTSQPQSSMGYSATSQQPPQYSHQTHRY
T4 sequence (P54764 20-986): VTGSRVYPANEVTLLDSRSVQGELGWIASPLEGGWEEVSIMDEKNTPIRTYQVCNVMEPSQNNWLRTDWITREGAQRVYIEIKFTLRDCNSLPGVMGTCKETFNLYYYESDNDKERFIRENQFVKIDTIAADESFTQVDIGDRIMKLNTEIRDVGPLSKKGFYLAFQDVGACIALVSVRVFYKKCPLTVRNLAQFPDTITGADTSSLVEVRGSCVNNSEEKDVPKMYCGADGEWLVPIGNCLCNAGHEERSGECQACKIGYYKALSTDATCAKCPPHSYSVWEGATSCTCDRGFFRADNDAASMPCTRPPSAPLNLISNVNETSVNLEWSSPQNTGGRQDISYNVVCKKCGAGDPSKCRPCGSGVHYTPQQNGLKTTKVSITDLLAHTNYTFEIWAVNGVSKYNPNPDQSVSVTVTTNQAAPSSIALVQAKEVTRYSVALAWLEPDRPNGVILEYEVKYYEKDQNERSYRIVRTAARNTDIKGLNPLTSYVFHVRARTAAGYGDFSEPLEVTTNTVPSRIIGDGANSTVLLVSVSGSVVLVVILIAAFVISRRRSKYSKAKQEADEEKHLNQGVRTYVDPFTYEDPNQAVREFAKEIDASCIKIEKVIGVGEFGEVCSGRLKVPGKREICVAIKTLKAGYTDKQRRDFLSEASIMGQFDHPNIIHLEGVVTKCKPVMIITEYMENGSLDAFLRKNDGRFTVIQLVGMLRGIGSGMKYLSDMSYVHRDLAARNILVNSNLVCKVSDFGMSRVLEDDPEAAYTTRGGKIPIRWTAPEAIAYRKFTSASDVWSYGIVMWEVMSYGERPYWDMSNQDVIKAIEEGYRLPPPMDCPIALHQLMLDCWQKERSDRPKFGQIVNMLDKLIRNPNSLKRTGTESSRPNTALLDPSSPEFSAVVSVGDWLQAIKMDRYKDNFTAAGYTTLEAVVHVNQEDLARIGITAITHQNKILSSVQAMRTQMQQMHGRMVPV
T6 sequence (Q04912 25-1400): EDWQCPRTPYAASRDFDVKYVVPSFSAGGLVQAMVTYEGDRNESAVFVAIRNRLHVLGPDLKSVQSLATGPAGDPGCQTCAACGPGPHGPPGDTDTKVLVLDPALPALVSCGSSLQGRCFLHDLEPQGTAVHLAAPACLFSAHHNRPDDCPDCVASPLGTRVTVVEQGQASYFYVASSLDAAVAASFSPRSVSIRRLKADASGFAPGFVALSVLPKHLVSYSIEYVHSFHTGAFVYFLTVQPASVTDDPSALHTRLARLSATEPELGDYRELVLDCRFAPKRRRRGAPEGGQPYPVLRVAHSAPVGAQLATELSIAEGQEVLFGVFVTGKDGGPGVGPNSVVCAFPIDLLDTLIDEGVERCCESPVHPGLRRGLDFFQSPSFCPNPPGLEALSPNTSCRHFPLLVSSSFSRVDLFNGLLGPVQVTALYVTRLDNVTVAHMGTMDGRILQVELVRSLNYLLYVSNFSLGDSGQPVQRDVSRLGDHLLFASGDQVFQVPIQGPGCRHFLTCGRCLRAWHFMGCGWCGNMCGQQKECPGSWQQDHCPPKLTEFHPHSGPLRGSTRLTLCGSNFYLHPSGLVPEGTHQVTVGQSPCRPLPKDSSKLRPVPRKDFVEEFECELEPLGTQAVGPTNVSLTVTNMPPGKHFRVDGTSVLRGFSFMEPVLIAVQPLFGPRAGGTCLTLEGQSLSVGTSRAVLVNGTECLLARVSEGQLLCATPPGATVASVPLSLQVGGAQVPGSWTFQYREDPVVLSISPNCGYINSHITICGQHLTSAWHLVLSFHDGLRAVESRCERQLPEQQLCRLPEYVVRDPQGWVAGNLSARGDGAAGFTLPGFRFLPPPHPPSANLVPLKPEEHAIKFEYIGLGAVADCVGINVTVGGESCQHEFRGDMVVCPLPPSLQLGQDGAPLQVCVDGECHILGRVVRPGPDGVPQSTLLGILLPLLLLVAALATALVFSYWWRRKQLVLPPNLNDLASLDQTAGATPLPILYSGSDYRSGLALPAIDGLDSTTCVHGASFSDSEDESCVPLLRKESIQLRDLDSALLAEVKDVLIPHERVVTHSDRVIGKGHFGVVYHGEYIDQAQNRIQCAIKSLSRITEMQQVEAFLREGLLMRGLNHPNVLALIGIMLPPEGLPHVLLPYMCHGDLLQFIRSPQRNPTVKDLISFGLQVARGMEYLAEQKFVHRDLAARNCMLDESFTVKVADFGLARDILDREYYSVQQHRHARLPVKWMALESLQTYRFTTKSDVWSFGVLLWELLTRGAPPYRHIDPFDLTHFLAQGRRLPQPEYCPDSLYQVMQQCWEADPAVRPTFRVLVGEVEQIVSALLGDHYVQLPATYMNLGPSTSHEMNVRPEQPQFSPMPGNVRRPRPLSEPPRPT
T1 sequence (O75914 whole entry): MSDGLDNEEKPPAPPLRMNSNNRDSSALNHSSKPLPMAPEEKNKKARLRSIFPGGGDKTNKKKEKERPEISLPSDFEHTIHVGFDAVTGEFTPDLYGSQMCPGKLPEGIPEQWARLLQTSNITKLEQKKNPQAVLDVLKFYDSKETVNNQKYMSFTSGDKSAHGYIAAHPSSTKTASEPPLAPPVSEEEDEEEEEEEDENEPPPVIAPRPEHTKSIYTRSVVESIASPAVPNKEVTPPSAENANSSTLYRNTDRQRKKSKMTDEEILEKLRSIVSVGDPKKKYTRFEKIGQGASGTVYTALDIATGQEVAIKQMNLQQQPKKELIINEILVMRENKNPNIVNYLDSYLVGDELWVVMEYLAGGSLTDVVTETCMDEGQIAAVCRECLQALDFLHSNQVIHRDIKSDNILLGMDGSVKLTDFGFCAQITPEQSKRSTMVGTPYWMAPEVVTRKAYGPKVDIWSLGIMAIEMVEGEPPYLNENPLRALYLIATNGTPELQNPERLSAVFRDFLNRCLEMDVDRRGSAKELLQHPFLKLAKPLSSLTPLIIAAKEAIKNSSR

Structure (SMILES): CNC(=O)c1ccc2c(c1)C(=O)c1ccc(Nc3ccc(F)c(NC(=O)C4CC4)c3)cc1CC2 [Compound 2015]
- remaining activity at 0.2 µM (340 wild-type kinases [1]; 0.2 µM 2015, read-out: PAK3 residual activity): 97.6%
- remaining activity at 1 µM (340 wild-type kinases [1]; 1 µM 2015, read-out: PAK3 residual activity): 96.3%
- remaining activity at 0.2 µM (340 wild-type kinases [1]; PAK3, 0.2 µM, read-out: residual activity): 97.6%
- remaining activity at 1 µM (340 wild-type kinases [1]; PAK3, 1 µM, read-out: residual activity): 96.3%
- remaining activity at 0.2 µM (340 wild-type kinases [2]; 0.2 µM 2015, read-out: FGFR3 residual activity): 109%
- remaining activity at 1 µM (340 wild-type kinases [2]; 1 µM 2015, read-out: FGFR3 residual activity): 97.1%
- remaining activity at 0.2 µM (340 wild-type kinases [2]; FGFR3, 0.2 µM, read-out: residual activity): 109%
- remaining activity at 1 µM (340 wild-type kinases [2]; FGFR3, 1 µM, read-out: residual activity): 97.1%
- remaining activity at 0.2 µM (340 wild-type kinases [3]; 0.2 µM 2015, read-out: CDK8/CycC residual activity): 92.5%
- remaining activity at 1 µM (340 wild-type kinases [3]; 1 µM 2015, read-out: CDK8/CycC residual activity): 85.2%
- remaining activity at 0.2 µM (340 wild-type kinases [3]; CDK8/CycC, 0.2 µM, read-out: residual activity): 92.5%
- remaining activity at 1 µM (340 wild-type kinases [3]; CDK8/CycC, 1 µM, read-out: residual activity): 85.2%
- remaining activity at 0.2 µM (340 wild-type kinases [4]; 0.2 µM 2015, read-out: EPHA4 residual activity): 95.1%
- remaining activity at 1 µM (340 wild-type kinases [4]; 1 µM 2015, read-out: EPHA4 residual activity): 91.4%
- remaining activity at 0.2 µM (340 wild-type kinases [4]; EPHA4, 0.2 µM, read-out: residual activity): 95.1%
- remaining activity at 1 µM (340 wild-type kinases [4]; EPHA4, 1 µM, read-out: residual activity): 91.5%
- remaining activity at 0.2 µM (340 wild-type kinases [5]; 0.2 µM 2015, read-out: ACVR1 residual activity): 88.7%
- remaining activity at 1 µM (340 wild-type kinases [5]; 1 µM 2015, read-out: ACVR1 residual activity): 96.8%
- remaining activity at 0.2 µM (340 wild-type kinases [5]; ACVR1, 0.2 µM, read-out: residual activity): 88.7%
- remaining activity at 1 µM (340 wild-type kinases [5]; ACVR1, 1 µM, read-out: residual activity): 96.8%
- remaining activity at 0.2 µM (340 wild-type kinases [6]; 0.2 µM 2015, read-out: RON residual activity): 97%
- remaining activity at 1 µM (340 wild-type kinases [6]; 1 µM 2015, read-out: RON residual activity): 101%
- remaining activity at 0.2 µM (340 wild-type kinases [6]; RON, 0.2 µM, read-out: residual activity): 97%
- remaining activity at 1 µM (340 wild-type kinases [6]; RON, 1 µM, read-out: residual activity): 101%
- remaining activity at 0.2 µM (340 wild-type kinases [7]; 0.2 µM 2015, read-out: DYRK2 residual activity): 95.7%
- remaining activity at 1 µM (340 wild-type kinases [7]; 1 µM 2015, read-out: DYRK2 residual activity): 94.2%
- remaining activity at 0.2 µM (340 wild-type kinases [7]; DYRK2, 0.2 µM, read-out: residual activity): 95.7%
- remaining activity at 1 µM (340 wild-type kinases [7]; DYRK2, 1 µM, read-out: residual activity): 94.2%
- remaining activity at 0.2 µM (340 wild-type kinases [8]; 0.2 µM 2015, read-out: PRKD2 residual activity): 66.4%
- remaining activity at 1 µM (340 wild-type kinases [8]; 1 µM 2015, read-out: PRKD2 residual activity): 91.3%
- remaining activity at 0.2 µM (340 wild-type kinases [8]; PRKD2, 0.2 µM, read-out: residual activity): 66.4%
- remaining activity at 1 µM (340 wild-type kinases [8]; PRKD2, 1 µM, read-out: residual activity): 91.3%
